Laboratory results as given in US8492429B2, “Combination of IAP inhibitors and FLT3 inhibitors” (Novartis AG, priority 2006, dated 2013).

Test system: Ba/F3-FLT3-ITD cells
Assay: Proliferation of cells cultured in the presence and absence of WEHI (IL-3)
Type: cell-based, murine
Details: WEHI as source of IL-3

CNC(C)C(=O)NC(C(=O)N1CCC2CCN(CCc3ccccc3)CC21)C1CCCCC1 (stereo not shown) [LBW242]
Inhibition of cellular proliferation in the presence and absence of IL-3: inhibits proliferation of Ba/F3-FLT3-ITD cells in both the absence, as well as the presence of IL-3
